In patent US20090082260A1, “COMBINATION OF AN IMMUNOSUPPRESSANT AND A PPAR GAMMA AGONIST FOR THE TREATMENT OF AN UNDESIRABLE IMMUNE RESPONSE” (priority 2005, published 2009):

System: cardiac allograft
Assay: Cardiac allograft rejection in rats: long term graft survival
Assay type: in vivo, rat
Settings: for Mean Survival Time, extended data set: Table 10b
Description: Animals were obtained from the Animal Resources Centre, Australia. The rats were allowed free access to food and water in a 12-hour light/12-hour dark cycled room. The experimental protocol was approved by the Committee on the Use of Live Animals in Teaching and Research, University of Hong Kong.
Six rats were used in each treatment group.
Recipient rats in TGA received hearts harvested from donor […] strain rats.
Graft survival was analysed using a chi-squared test.
Example 3 was extended to include a number of alternative treatment groups and additional numbers of animals in certain of the treatment groups already investigated.
Table 10b below summarises the graft survival rates, including both the original and supplemental data.

CN(CCOc1ccc(CC2SC(=O)NC2=O)cc1)c1ccccn1 (centres unmarked) [rosiglitazone, 5-[4-[2-(N-methyl-N-(2-pyridyl)amino)ethoxy]benzyl]thiazolidine-2,4-dione]
Graft survival compared with untreated subjects (TGE) (PPAR-gamma agonist alone at a high dose (TGF, 20 mg/kg/day)): does not show any notable difference
Graft survival compared with untreated subjects (TGE) (PPAR-gamma agonist alone at a medium dose (TGB, 5 mg/kg/day)): does not show any notable difference
Mean Survival Time (Table 10, TGA cyclosporin A 20 mg/kg/day i.p. 14 days, TGB rosiglitazone 5 mg/kg/day oral to day 120, TGC both, n=6): 15.8 days
Mean Survival Time, extended data set (TGA cyclosporin A 20 mg/kg/day i.p. 14 days, TGB rosiglitazone 5 mg/kg/day oral, TGC both): 15.8 days
Mean Survival Time, extended data set (TGF high dose rosiglitazone 20 mg/kg/day oral only, n=6): 18.8 days
